Assay results from patent US10111883B1, “Selective P2X3 modulators” (BELLUS Health inc., priority 2017, dated 2018).

Assays:
[1] = test system: guinea pig cough model (citric acid and histamine); experiment: Guinea pig cough response model (dose response); type: in vivo; details: for reduction in cough vs. control: 2 hours prior to citric acid and histamine, coughs counted 15 minutes, statistically significant; for reduction in cough frequency as compared to the control (dose dependence): 0.3, 3 and 30 mg/kg oral
Description: The anti-tussive effect of Compound 1 was compared to that of AF-219 in a guinea pig cough model. Guinea pigs are the most commonly used animal in cough studies for both the investigation of the cough reflex at a fundamental level and for use as an antitussive screen (Mackensie et al., Drug Discovery Today, 2004, 1, 297-302). In the guinea pig, it was shown that exposure to ATP and histamine aerosols increases cough responses to tussive stimuli via P2X3 receptor-mediated mechanisms (Kamei et al., Eur J Pharmacol (2005) 528: 158-161; Kamei et al., Eur J Pharmacol (2006) 547: 160-164).
(§1) Treatments (control, Compound 1 (0.3, 3 and 30 mg/kg) or AF-219 (0.3, 3 or 30 mg/kg)) were administered orally in seven groups of 6 animals 2 hours prior to tussive agent exposure (citric acid and histamine) and the number of coughs were counted for a period of 15 minutes.

[2] = test system: guinea pig cough model (citric acid and histamine); experiment: Time course study in guinea pig cough response model; type: in vivo; details: single oral 30 mg/kg; for anti-tussive effect (significance): 8 hours post-dose
Procedure: as §1
Using the same guinea pig cough model as described in Example 2, a time course study was conducted to assess the duration of the anti-tussive effect of Compound 1 and AF-219 following the administration of a single oral 30 mg/kg dose. In this study, animals in groups of 6 were exposed to tussive agents (citric acid and histamine) at various times after the administration of the study drugs (2, 4, 6, 8 and 12 hours post-dose for Compound 1; and 2 and 8 hours post-dose for AF-219) and the number of coughs were measured for 15 minutes.

taste function = experiment: Two bottle taste study (water vs quinine); type: in vivo, rat; details: 10 or 20 mg/kg intraperitoneally; for effect on taste function: rat; for quinine drunk relative to control: rats water-fasted overnight, volume measured for 15 minutes at Cmax
Procedure: A rat taste model was used to compare the effect of Compound 1 on taste function with that of AF-219. Animals were water-fasted overnight and presented with one bottle of water and one bottle of (bitter-tasting) quinine at the time corresponding to the maximum plasma concentration of study drugs; and the volume of liquid consumed from each bottle was measured for 15 minutes. Treatments (control, Compound 1 (10 or 20 mg/kg) or AF-219 (10 or 20 mg/kg)) were administered intraperitoneally in two groups of 10 rats.

[3] = test system: P2X3 and P2X2/P2X3 channel; experiment: Fluo-8 calcium assay, antagonism of P2X3 versus P2X2/P2X3 channels in HEK293 cells; type: cell-based; details: human P2X3 and P2X2/P2X3 in HEK293 cells, meATP stimulation; IC50s only in FIG. 3
Procedure: The ability of the compounds described herein and Gefapixant (also known as AF-219) to act as an antagonist of the P2X3 and P2X2/P2X3 channel (encoded by the human P2RX2 and P2RX3 genes, stably expressed in HEK293 cells) was evaluated with a Fluo-8 calcium kit. Compounds 1, 2, 9, 11, 15, and AF-219 were evaluated at twelve concentrations.
For the antagonist effect assessment, the cells were pre-incubated with Compounds 1, 2, 9, 11, 15, and AF-219 for 20 minutes, then stimulated with the P2X3 and P2X2/P2X3 agonist α,β-methyleneATP (meATP) at final concentrations of 3 μM and 30 μM. Four minutes fifty seconds after addition of meATP, ionomycin was added at a final concentration of 5 μM in order to obtain the maximum calcium influx and fluorescence signal possible from the cells. Fluorescence was recorded continuously for 10 minutes, starting 10 seconds prior to the addition of meATP.

Row | effect on taste function (taste function) | Structure (SMILES) | reduction in cough vs. control ([1]; 30 mg/kg oral) | reduction in cough frequency as compared to the control (dose dependence) [1] | duration of anti-tussive effect [2] | reduction in cough frequency compared to control (significance) ([2]; 2 hours post-dose) | anti-tussive effect (significance) [2] | quinine drunk relative to control (taste function) | selectivity as P2X3 antagonist (P2X3 versus P2X2/3) [3] | other results
1 | altered taste function | COc1cc(C(C)C)c(Oc2cnc(N)nc2N)cc1S(N)(=O)=O [AF-219, Gefapixant, reference compound] | 45% | comparable dose-dependent reduction in cough frequency | comparable duration of effect | statistically significant | no longer significant | approximately 5 times |  | 
2 |  | CCC(=O)N1CCO[C@@H](Cc2c(-c3c(F)cc(C(=O)NC)cc3F)nc3cc(C)ccn23)C1 [Compound 2] |  |  |  |  |  |  | selective P2X3 antagonists | 
3 |  | CNC(=O)c1cc(F)c(-c2nc3cc(C)ccn3c2C[C@H]2CN(C(C)=O)CCO2)cc1F [Compound 9] |  |  |  |  |  |  | selective P2X3 antagonists | 
4 | did not | CNC(=O)c1cc(F)c(-c2nc3cc(C)ccn3c2C[C@H]2CN(C(=O)OC)CCO2)c(F)c1 [Compound 1] | 52% | comparable dose-dependent reduction in cough frequency | comparable duration of effect | statistically significant | no longer significant | did not drink more quinine than the control animals | selective P2X3 antagonists | reduction in cough vs. control ([1]; 3 mg/kg oral): 39%; reduction in cough frequency compared to control (significance) ([2]; 4 hours post-dose): statistically significant; reduction in cough frequency compared to control (significance) ([2]; 6 hours post-dose): statistically significant
5 |  | CNC(=O)c1ccc(-c2nc3cc(Cl)ccn3c2C[C@H]2CN(C(C)=O)CCO2)c(C)c1 [Compound 11] |  |  |  |  |  |  | selective P2X3 antagonists | 
6 |  | CNC(=O)c1cc(F)c(-c2nc3cc(Cl)ccn3c2C[C@H]2CN(C(C)=O)CCO2)c(F)c1 [Compound 15] |  |  |  |  |  |  | selective P2X3 antagonists | 
